Test results as given in patent US20260297070A1, “CYCLIC [COMPOUND LEFT OUT] WRN INHIBITORS” (Nimbus Wadjet, Inc., priority 2023, published 2026).

What follows are compounds tested against T1, human Werner helicase (WRN-BV08, Uniprot Q14191, amino acids 517-1235 with L1074F point mutation) (Homo sapiens, UniProt Q14191, L1074F) (assay: WRN (BV08) ADP-Glo Assay). Conditions: 0.15 nM WRN, 5 μM ATP, 0.1 nM DNA duplex, 15 min preincubation, 60 min at 25° C., pH 7.5, 1% DMSO; read-out: ADP-Glo_hWRN_IC50.
T1 construct: Uniprot Q14191, amino acids 517-1235 with L1074F point mutation; TEV-cleavable 8×His (C, cleaved yes); made in house; host or cells: Sf9 insect cells (baculovirus)
Format: biochemical
Procedure, shortened: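 0.15 nM WRN (aa 517-1235, L1074F, Sf9-expressed, tag cleaved) preincubated 15 min at 25 °C with compound, then 5 μM ATP and 0.1 nM DNA duplex added for 60 min. Buffer: 20 mM Bicine pH 7.5, 1 mM MgCl2, 10 mM KCl, 1 mM TCEP; 1% DMSO. ADP-Glo luminescence; IC50 by 4-parameter fit.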

T1 sequence (Q14191 with tags, fused parts or gaps L1074F limits assumed): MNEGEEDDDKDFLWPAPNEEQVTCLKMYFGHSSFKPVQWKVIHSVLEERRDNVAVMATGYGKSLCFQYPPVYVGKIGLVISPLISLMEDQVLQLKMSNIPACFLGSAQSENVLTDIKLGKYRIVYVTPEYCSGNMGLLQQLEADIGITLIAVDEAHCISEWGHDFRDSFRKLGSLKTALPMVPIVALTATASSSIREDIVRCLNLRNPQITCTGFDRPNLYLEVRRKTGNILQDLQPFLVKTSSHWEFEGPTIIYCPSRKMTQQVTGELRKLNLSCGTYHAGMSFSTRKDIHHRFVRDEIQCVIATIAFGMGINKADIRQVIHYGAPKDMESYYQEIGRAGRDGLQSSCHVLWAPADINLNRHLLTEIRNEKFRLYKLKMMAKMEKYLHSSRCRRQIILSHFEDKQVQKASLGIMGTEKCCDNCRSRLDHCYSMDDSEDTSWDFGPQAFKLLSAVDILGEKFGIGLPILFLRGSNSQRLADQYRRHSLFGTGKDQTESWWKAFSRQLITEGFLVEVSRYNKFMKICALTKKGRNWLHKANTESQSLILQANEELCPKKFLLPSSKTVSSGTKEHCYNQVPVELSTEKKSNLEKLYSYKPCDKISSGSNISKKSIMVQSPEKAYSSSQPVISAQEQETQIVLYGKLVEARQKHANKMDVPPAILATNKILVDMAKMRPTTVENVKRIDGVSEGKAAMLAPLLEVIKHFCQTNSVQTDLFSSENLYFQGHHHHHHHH

Structure (SMILES) | IC50
CC(C)(O)c1cc(CN(C(=O)Cn2cc(-c3ccc(C(F)F)cc3)cn2)C2C=CS(=O)(=O)C2)ccn1 (single isomer, unassigned) [I-639] | < 0.5 µM
C=CCOC(C(=O)N(Cc1ccnc(C(C)(C)O)c1)[C@@H]1C=CS(=O)(=O)C1)c1ccc(-c2ccc(F)c(F)c2)cc1F (single isomer, unassigned) [I-641] | < 0.5 µM
CC(C)(O)c1cc(CN(C(=O)Cc2ccc(OC(F)(F)C(F)(F)F)cc2)C2C=CS(=O)(=O)C2)ccn1 (single isomer, unassigned) [I-661] | < 0.5 µM
CC(C)(O)c1cc(CN(C(=O)Cc2ccc(C3(C(F)(F)F)CC3)cc2)C2C=CS(=O)(=O)C2)ccn1 (single isomer, unassigned) [I-663] | 0.5 to 5 µM
COC(C(=O)N(Cc1ccnc(C(C)(C)O)c1)C1C=CS(=O)(=O)C1)c1ccc(S(F)(F)(F)(F)F)cc1 (single isomer, unassigned) [I-664, (2R*)-N-[(3R**)-1,1-dioxo-2,3-dihydro-1lambda6-thiophen-3-yl]-N-{[2-(2-hydroxypropan-2-yl)pyridin-4-yl]methyl}-2-methoxy-2-[4-(pentafluoro-lambda6-sulfanyl)phenyl]acetamide] | < 0.5 µM
COC(C(=O)N(Cc1ccnc(C(C)(C)O)c1)C1C=CS(=O)(=O)C1)c1ccc(S(F)(F)(F)(F)F)cc1 (single isomer, unassigned) [I-665, (2R*)-N-[(3R**)-1,1-dioxo-2,3-dihydro-1lambda6-thiophen-3-yl]-N-{[2-(2-hydroxypropan-2-yl)pyridin-4-yl]methyl}-2-methoxy-2-[4-(pentafluoro-lambda6-sulfanyl)phenyl]acetamide] | 10 to 50 µM
CC(C)(O)c1cc(CN(C(=O)C(c2ccc(-c3ccc(F)c(F)c3)cc2F)n2cccn2)C2C=CS(=O)(=O)C2)ccn1 (single isomer, unassigned) [I-669, (2R*)-N-[(3R**)-1,1-dioxo-2,3-dihydro-1lambda6-thiophen-3-yl]-N-{[2-(2-hydroxypropan-2-yl)pyridin-4-yl]methyl}-2-(1H-pyrazol-1-yl)-2-{3,3′,4′-trifluoro-[1,1′-biphenyl]-4-yl}acetamide] | < 0.5 µM
CC(C)(O)c1cc(CN(C(=O)C(c2ccc(-c3ccc(F)c(F)c3)cc2F)n2cccn2)C2C=CS(=O)(=O)C2)ccn1 (single isomer, unassigned) [I-670, (2R*)-N-[(3R**)-1,1-dioxo-2,3-dihydro-1lambda6-thiophen-3-yl]-N-{[2-(2-hydroxypropan-2-yl)pyridin-4-yl]methyl}-2-(1H-pyrazol-1-yl)-2-{3,3′,4′-trifluoro-[1,1′-biphenyl]-4-yl}acetamide] | 0.5 to 5 µM
COc1cc(CN(C(=O)C(c2ccc(-c3ccc(F)c(F)c3)cc2F)n2cccn2)[C@@H]2C=CS(=O)(=O)C2)ccn1 (single isomer, unassigned) [I-671, (2R*)-N-[(3R)-1,1-dioxo-2,3-dihydro-1lambda6-thiophen-3-yl]-N-[(2-methoxypyridin-4-yl)methyl]-2-(1H-pyrazol-1-yl)-2-{3,3′,4′-trifluoro-[1,1′-biphenyl]-4-yl}acetamide] | < 0.5 µM
COc1cc(CN(C(=O)C(c2ccc(-c3ccc(F)c(F)c3)cc2F)n2cccn2)[C@@H]2C=CS(=O)(=O)C2)ccn1 (single isomer, unassigned) [I-672, (2R*)-N-[(3R)-1,1-dioxo-2,3-dihydro-1lambda6-thiophen-3-yl]-N-[(2-methoxypyridin-4-yl)methyl]-2-(1H-pyrazol-1-yl)-2-{3,3′,4′-trifluoro-[1,1′-biphenyl]-4-yl}acetamide] | 5 to 10 µM
CC(C)(O)c1cc(CN(C(=O)Cc2ccc(C(F)(F)C(F)(F)F)cc2)C2C=CS(=O)(=O)C2)ccn1 (single isomer, unassigned) [I-673] | < 0.5 µM
CC(C)(O)c1cc(CN(C(=O)CCc2ccc(S(F)(F)(F)(F)F)cc2)C2C=CS(=O)(=O)C2)ccn1 (single isomer, unassigned) [I-674] | 5 to 10 µM
COCC(C(=O)N(Cc1ccnc(C(C)(C)O)c1)[C@@H]1C=CS(=O)(=O)C1)c1ccc(S(F)(F)(F)(F)F)cc1 (single isomer, unassigned) [I-675] | 10 to 50 µM
